According to PubChem BioAssay (NCI):
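Method: 48-hour compound exposure of cells in 96-well plates, five concentrations, linear interpolation of endpoints. GI50: concentration for 50% inhibition of growth. TGI is the concentration that stops growth completely.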

Key:
Experiment in all cases: NCI anticancer screen, dose series, 48 h
RXF 393 renal = tested on: RXF 393 renal
U251 CNS = tested on: U251 CNS
NCI-H522 lung = tested on: NCI-H522 lung
PC-3 prostate = tested on: PC-3 prostate
OVCAR-3 ovarian = tested on: OVCAR-3 ovarian
CAKI-1 renal = tested on: CAKI-1 renal
MALME-3M melanoma = tested on: MALME-3M melanoma
NCI-H23 lung = tested on: NCI-H23 lung
EKVX NSCLC = tested on: EKVX NSCLC
SNB-75 CNS = tested on: SNB-75 CNS
NCI/ADR-RES ovarian = tested on: NCI/ADR-RES ovarian
A498 renal = tested on: A498 renal
MOLT-4 leukemia = tested on: MOLT-4 leukemia
SF-295 CNS = tested on: SF-295 CNS
NCI-H460 lung = tested on: NCI-H460 lung
K-562 leukemia = tested on: K-562 leukemia
COLO 205 colon = tested on: COLO 205 colon
A549 NSCLC = tested on: A549 NSCLC
SW-620 colon = tested on: SW-620 colon
HOP-62 NSCLC = tested on: HOP-62 NSCLC
BT-549 breast = tested on: BT-549 breast
HCT-15 colon = tested on: HCT-15 colon
HS 578T breast = tested on: HS 578T breast
OVCAR-4 ovarian = tested on: OVCAR-4 ovarian
SNB-19 CNS = tested on: SNB-19 CNS
OVCAR-5 ovarian = tested on: OVCAR-5 ovarian
MDA-MB-435 = tested on: MDA-MB-435
SK-OV-3 ovarian = tested on: SK-OV-3 ovarian
UACC-257 melanoma = tested on: UACC-257 melanoma
MCF7 breast = tested on: MCF7 breast
HCC-2998 colon = tested on: HCC-2998 colon
SF-268 CNS = tested on: SF-268 CNS
SK-MEL-5 melanoma = tested on: SK-MEL-5 melanoma
NCI-H226 lung = tested on: NCI-H226 lung
UO-31 renal = tested on: UO-31 renal
786-0 renal = tested on: 786-0 renal
HOP-92 NSCLC = tested on: HOP-92 NSCLC
HL-60(TB) leukemia = tested on: HL-60(TB) leukemia
RPMI-8226 leukemia = tested on: RPMI-8226 leukemia
CCRF-CEM leukemia = tested on: CCRF-CEM leukemia
SK-MEL-2 melanoma = tested on: SK-MEL-2 melanoma
SR leukemia = tested on: SR leukemia
ACHN renal = tested on: ACHN renal
UACC-62 melanoma = tested on: UACC-62 melanoma
DU-145 prostate = tested on: DU-145 prostate
KM12 colon = tested on: KM12 colon
LOX IMVI melanoma = tested on: LOX IMVI melanoma
SK-MEL-28 melanoma = tested on: SK-MEL-28 melanoma
M14 melanoma = tested on: M14 melanoma
IGROV1 ovarian = tested on: IGROV1 ovarian
HT29 colon = tested on: HT29 colon
SN12C renal = tested on: SN12C renal
MDA-MB-231 breast = tested on: MDA-MB-231 breast
OVCAR-8 ovarian = tested on: OVCAR-8 ovarian
T-47D breast = tested on: T-47D breast
TK-10 renal = tested on: TK-10 renal
SF-539 CNS = tested on: SF-539 CNS
HCT-116 colon = tested on: HCT-116 colon

CC(C)[C@@H]1C=C2CC[C@H]3[C@](C)(CN)CCC[C@]3(C)[C@H]2CC1
GI50 (RXF 393 renal): 1.77 µM
TGI (RXF 393 renal): 3.56 µM
GI50 (U251 CNS): 1.76 µM
TGI (U251 CNS): 3.28 µM
GI50 (NCI-H522 lung): 1.91 µM
TGI (NCI-H522 lung): 4.16 µM
GI50 (PC-3 prostate): 5.59 µM
TGI (PC-3 prostate): 19.6 µM
GI50 (OVCAR-3 ovarian): 2.8 µM
TGI (OVCAR-3 ovarian): 9.22 µM
GI50 (CAKI-1 renal): 1.85 µM
TGI (CAKI-1 renal): 4.66 µM
GI50 (MALME-3M melanoma): 3.9 µM
TGI (MALME-3M melanoma): 19.3 µM
GI50 (NCI-H23 lung): 1.94 µM
TGI (NCI-H23 lung): 4.09 µM
GI50 (EKVX NSCLC): 7.32 µM
TGI (EKVX NSCLC): 23.4 µM
GI50 (SNB-75 CNS): 14.8 µM
TGI (SNB-75 CNS): 28.8 µM
GI50 (NCI/ADR-RES ovarian): 2.62 µM
TGI (NCI/ADR-RES ovarian): 7.32 µM
GI50 (A498 renal): 2.13 µM
TGI (A498 renal): 15 µM
GI50 (MOLT-4 leukemia): 2.35 µM
TGI (MOLT-4 leukemia): 6.03 µM
GI50 (SF-295 CNS): 1.9 µM
TGI (SF-295 CNS): 4.29 µM
GI50 (NCI-H460 lung): 1.8 µM
TGI (NCI-H460 lung): 3.34 µM
GI50 (K-562 leukemia): 1.96 µM
TGI (K-562 leukemia): 4.36 µM
GI50 (COLO 205 colon): 1.7 µM
TGI (COLO 205 colon): 3.17 µM
GI50 (A549 NSCLC): 3.07 µM
TGI (A549 NSCLC): 11 µM
GI50 (SW-620 colon): 1.73 µM
TGI (SW-620 colon): 3.23 µM
GI50 (HOP-62 NSCLC): 3.33 µM
TGI (HOP-62 NSCLC): 10.9 µM
GI50 (BT-549 breast): 16.5 µM
TGI (BT-549 breast): 35.4 µM
GI50 (HCT-15 colon): 2.08 µM
TGI (HCT-15 colon): 4.94 µM
GI50 (HS 578T breast): 4.69 µM
TGI (HS 578T breast): 20.1 µM
GI50 (OVCAR-4 ovarian): 15.1 µM
TGI (OVCAR-4 ovarian): 34.3 µM
GI50 (SNB-19 CNS): 8.17 µM
TGI (SNB-19 CNS): 21.1 µM
GI50 (OVCAR-5 ovarian): 2.22 µM
TGI (OVCAR-5 ovarian): 5.38 µM
GI50 (MDA-MB-435): 1.98 µM
TGI (MDA-MB-435): 4.2 µM
GI50 (SK-OV-3 ovarian): 13.2 µM
TGI (SK-OV-3 ovarian): 26 µM
GI50 (UACC-257 melanoma): 2.9 µM
TGI (UACC-257 melanoma): 9.88 µM
GI50 (MCF7 breast): 1.62 µM
TGI (MCF7 breast): 3.06 µM
GI50 (HCC-2998 colon): 1.63 µM
TGI (HCC-2998 colon): 3.03 µM
GI50 (SF-268 CNS): 7.27 µM
TGI (SF-268 CNS): 20.7 µM
GI50 (SK-MEL-5 melanoma): 13.1 µM
TGI (SK-MEL-5 melanoma): 25.8 µM
GI50 (NCI-H226 lung): 15.2 µM
TGI (NCI-H226 lung): 34.4 µM
GI50 (UO-31 renal): 3.33 µM
TGI (UO-31 renal): 16.1 µM
GI50 (786-0 renal): 2.02 µM
TGI (786-0 renal): 4.1 µM
GI50 (HOP-92 NSCLC): 3.3 µM
TGI (HOP-92 NSCLC): 17.6 µM
GI50 (HL-60(TB) leukemia): 1.38 µM
TGI (HL-60(TB) leukemia): 4.39 µM
GI50 (RPMI-8226 leukemia): 2.57 µM
TGI (RPMI-8226 leukemia): 11.7 µM
GI50 (CCRF-CEM leukemia): 3.39 µM
TGI (CCRF-CEM leukemia): 13.8 µM
GI50 (SK-MEL-2 melanoma): 3.88 µM
TGI (SK-MEL-2 melanoma): 14.2 µM
GI50 (SR leukemia): 2.78 µM
TGI (SR leukemia): 12.4 µM
GI50 (ACHN renal): 5.67 µM
TGI (ACHN renal): 18.5 µM
GI50 (UACC-62 melanoma): 16 µM
TGI (UACC-62 melanoma): 30.5 µM
GI50 (DU-145 prostate): 2.05 µM
TGI (DU-145 prostate): 4.08 µM
GI50 (KM12 colon): 1.76 µM
TGI (KM12 colon): 3.23 µM
GI50 (LOX IMVI melanoma): 1.52 µM
TGI (LOX IMVI melanoma): 2.85 µM
GI50 (SK-MEL-28 melanoma): 16.9 µM
TGI (SK-MEL-28 melanoma): 30.7 µM
GI50 (M14 melanoma): 1.86 µM
TGI (M14 melanoma): 3.4 µM
GI50 (IGROV1 ovarian): 1.93 µM
TGI (IGROV1 ovarian): 4.09 µM
GI50 (HT29 colon): 1.84 µM
TGI (HT29 colon): 3.64 µM
GI50 (SN12C renal): 3.42 µM
TGI (SN12C renal): 14 µM
GI50 (MDA-MB-231 breast): 2.12 µM
TGI (MDA-MB-231 breast): 5.47 µM
GI50 (OVCAR-8 ovarian): 2.28 µM
TGI (OVCAR-8 ovarian): 5.7 µM
GI50 (T-47D breast): 1.99 µM
TGI (T-47D breast): 4.61 µM
GI50 (TK-10 renal): 12 µM
TGI (TK-10 renal): 25.3 µM
GI50 (SF-539 CNS): 3.44 µM
TGI (SF-539 CNS): 13 µM
GI50 (HCT-116 colon): 1.77 µM
TGI (HCT-116 colon): 3.18 µM
